{"source": "patent US10000577B2", "about": "“Treatment of otitis media” (Research Institute at Nationwide Children's Hospital, priority 2015, dated 2018)", "system": "NHBE cells", "test": "Inhibition of Arp2/3 - normal human bronchial epithelial cell (NHBE) infection model with GFP-expressing NTHI", "assay_type": "cell-based", "details": "200 μM CK-636, 24 or 48 hours", "description": "Inhibition of Arp2/3—Normal human bronchial epithelial cell (NHBE) infection model: NHBE cells (Lonza, Walkersville, Md.) were seeded into 24-well plates containing sterile coverslips and grown in Bronchial Epithelial Cell Growth Medium (BEGM; Lonza, Walkersville, Md.) at 37° C. in a 5% CO2 atmosphere to near confluency. […] The next morning the colonies were re-suspended in brain heart infusion broth supplemented with 2 μg/ml heme and 2 μg/ml β-NAD (sBHI) and grown at 37° C. with shaking at 180 rpm until the cells were in mid-log phase (˜5 generations). Prior to infection, the BEGM was removed from the NHBE cells and replaced with BEGM that contained either 200 μM CK-636 (Sigma-Aldrich, St. Louis, Mo.), an inhibitor of Arp2/3 function, or 0.2% DMSO, the vehicle for CK-636. Strain 86-028NP(pGM1.1) was then added to the NHBE cells at a multiplicity of infection of 50 bacteria to one NHBE cell and incubated at 37° C. in a 5% CO2 atmosphere for one hour. The NHBE cells were then washed twice with DPBS before being placed back in BEGM that contained either 200 μM CK-636 or 0.2% DMSO. Cells were incubated at 37° C. in a 5% CO2 atmosphere for 24 or 48 hours. At each time point, cells were stained with WGA-Alexa Fluor 594, fixed in 4% paraformaldehyde (Electron Microscopy Sciences, Hatfield, Pa.) in DPBS, permeabilized with 0.1% Triton X-100 then stained with phalloidin-Alexa Fluor 350. […]", "note": "Entries after “also recorded” stand apart in the source; their conditions may differ.", "data": [{"smiles": "Cc1[nH]c2ccccc2c1CCNC(=O)c1cccs1", "note": "[CK-636]", "values": [{"measurement": "NTHI invasion / bacterial uptake into epithelial cells (fluorescent microscopy)", "setting": "NTHI strain 86-028NP(pGM1.1), MOI 50, versus 0.2% DMSO vehicle", "value": "reduced NTHI invasion into epithelial cells; also recorded: increase in the number of extracellular bacteria indicating that bacterial uptake was reduced"}, {"measurement": "actin structure of NHBE cells (phalloidin staining, fluorescent microscopy)", "setting": "NTHI-infected NHBE cells", "value": "gross morphological changes in actin structure"}]}]}
